Measured values published in publication PMC5069662, “Transient Induced Molecular Electronic Spectroscopy (TIMES) for study of protein-ligand interactions” (Scientific Reports, 2016).

Biological target: T1, Thermolysin (Bacillus thermoproteolyticus, UniProt P00800)
T1 construct: gene npr
Assay: TIMES (label-free, immobilization-free microfluidic electronic detection), […] Tris-HCl buffer pH […]
Type: binding
Conditions: read-out: Measured KD from TIMES

T1 sequence (P00800 233-548): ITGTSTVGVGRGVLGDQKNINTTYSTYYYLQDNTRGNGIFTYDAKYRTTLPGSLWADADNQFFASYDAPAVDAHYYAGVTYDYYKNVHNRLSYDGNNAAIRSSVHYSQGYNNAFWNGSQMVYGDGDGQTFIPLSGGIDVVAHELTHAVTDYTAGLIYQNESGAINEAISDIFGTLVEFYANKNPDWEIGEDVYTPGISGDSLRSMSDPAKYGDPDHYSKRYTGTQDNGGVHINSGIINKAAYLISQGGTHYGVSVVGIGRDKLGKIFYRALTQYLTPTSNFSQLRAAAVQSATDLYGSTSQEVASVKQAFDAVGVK

Q: How did the Kd turn out when CC(C)C[C@H](NP(=O)(O)O[C@@H]1O[C@@H](C)[C@H](O)[C@@H](O)[C@H]1O)C(=O)N[C@@H](Cc1c[nH]c2ccccc12)C(=O)O [phosphoramidon] was run?
A: 32.1 ± 1.9 nM
